ChEMBL document CHEMBL3272053, “(exo, exo)-2-Aryltropane-3-carboxylic esters, hypoglycemic agents with accompanying analgesic activity” (J Med Chem, 1978)
Calls of active or inactive are those of the source. The rule behind the calls is not given here.

Key:
Rattus norvegicus [1] = assay: Narcotic analgesic activity in po dosed fasted Sprague-Dawley rat measured at 60 mins by D'Amour-Smith tail-flick test; assay type: functional
Rattus norvegicus [2] = assay: Narcotic analgesic activity in sc dosed fed Sprague-Dawley rat measured at 30 mins by D'Amour-Smith tail-flick test; assay type: functional; conditions: Rattus norvegicus, Sprague-Dawley, Tail, sc, 0.5 h; read-out: ED50
Rattus norvegicus [3] = assay: Toxicity in Sprague-Dawley rat assessed as rigidity at >=120 mg/kg, po; assay type: organism-based; conditions: in vivo
Rattus norvegicus [4] = assay: Analgesic activity in po dosed rat assessed as reduction of intraarterial bradykinin-induced pain response; assay type: functional
Rattus norvegicus [5] = assay: Toxicity in Sprague-Dawley rat assessed as tremor at >= 120 mg/kg, po; assay type: organism-based; parameters: dose 120 mg/kg, route oral; conditions: in vivo
Rattus norvegicus [6] = assay: Toxicity in Sprague-Dawley rat assessed as hyperexcitability at >= 120 mg/kg, po; assay type: organism-based; parameters: dose 120 mg/kg, route oral; conditions: in vivo
Rattus norvegicus [7] = assay: Toxicity in Sprague-Dawley rat assessed as mortality at >= 120 mg/kg, po; assay type: organism-based; parameters: dose 120 mg/kg, route oral; conditions: in vivo
Rattus norvegicus [8] = assay: Potency index, ratio of codeine ED50 to compound ED50 for analgesic activity in po dosed rat assessed as reduction of intraarterial bradykinin-induced pain response; assay type: functional
Rattus norvegicus [9] = assay: Hypoglycemic activity in Sprague-Dawley rat assessed as reduction of blood glucose level at 88 mg/kg, po by glucagon-impaired glucose disposal test relative to control; assay type: functional; parameters: scale not given: the % may be the effect or the level left
Rattus norvegicus [10] = assay: Narcotic analgesic activity in fed Sprague-Dawley rat at 120 mg/kg, sc measured at 30 mins by D'Amour-Smith tail-flick test; assay type: functional; conditions: route subcutaneous
Mus musculus [11] = assay: Analgesic activity in sc dosed Swiss-Webster mouse assessed as reduction of acetylcholine-induced writhing; assay type: functional
Rattus norvegicus [12] = assay: Analgesic activity in rat assessed as protection against intraarterial bradykinin-induced pain response at 100 mg/kg, sc; assay type: functional, organism-based; parameters: dose 100 mg/kg
Rattus norvegicus [13] = assay: Hypoglycemic activity in Sprague-Dawley rat assessed as reduction of blood glucose level at 89 mg/kg, po by glucagon-impaired glucose disposal test relative to control; assay type: functional; parameters: scale not given: the % may be the effect or the level left
Rattus norvegicus [14] = assay: Hypoglycemic activity in Sprague-Dawley rat assessed as reduction of blood glucose level at 100 mg/kg, po by glucagon-impaired glucose disposal test relative to control; assay type: functional; parameters: scale not given: the % may be the effect or the level left
Rattus norvegicus [15] = assay: Narcotic analgesic activity in fasted Sprague-Dawley rat at 240 mg/kg, po measured at 60 mins by D'Amour-Smith tail-flick test relative to control; assay type: functional
Mus musculus [16] = assay: Analgesic activity in Swiss-Webster mouse assessed as reduction of acetylcholine-induced writhing at 25 mg/kg, sc relative to control; assay type: functional; parameters: scale not given: the % may be the effect or the level left; conditions: route subcutaneous
Rattus norvegicus [17] = assay: Toxicity in Sprague-Dawley rat assessed as tremor at 240 mg/kg, po; assay type: organism-based; parameters: dose 240 mg/kg, route oral; conditions: in vivo
Rattus norvegicus [18] = assay: Toxicity in Sprague-Dawley rat assessed as tremor at 120 mg/kg, sc; assay type: organism-based; parameters: dose 120 mg/kg, route subcutaneous; conditions: in vivo
Mus musculus [19] = assay: Toxicity in Swiss-Webster mouse assessed as sedation at 40 mg/kg, sc; assay type: organism-based; parameters: dose 40 mg/kg, route subcutaneous; conditions: in vivo
Rattus norvegicus [20] = assay: Hypoglycemic activity in glucose loaded Sprague-Dawley rat assessed as reduction of blood glucose level at 64 mg/kg, po relative to control; assay type: functional; parameters: scale not given: the % may be the effect or the level left
Rattus norvegicus [21] = assay: Narcotic analgesic activity in fasted Sprague-Dawley rat at 240 mg/kg, po measured at 15 mins by D'Amour-Smith tail-flick test relative to control; assay type: functional
Mus musculus [22] = assay: Analgesic activity in Swiss-Webster mouse assessed as reduction of acetylcholine-induced writhing at 50 mg/kg, po relative to control; assay type: functional; parameters: scale not given: the % may be the effect or the level left
Rattus norvegicus [23] = assay: Toxicity in Sprague-Dawley rat assessed as convulsion at 240 mg/kg, po; assay type: organism-based; parameters: dose 240 mg/kg, route oral; conditions: in vivo
Rattus norvegicus [24] = assay: Toxicity in Sprague-Dawley rat assessed as rigidity at 240 mg/kg, po; assay type: organism-based; parameters: dose 240 mg/kg, route oral; conditions: in vivo
Rattus norvegicus [25] = assay: Hypoglycemic activity in Sprague-Dawley rat assessed as reduction of blood glucose level at 88 mg/kg, po by glucagon-impaired glucose disposal test in presence of microsomal enzyme inhibitor SKF 525-A; assay type: functional, organism-based; parameters: dose 88 mg/kg
Rattus norvegicus [26] = assay: Narcotic analgesic activity in fasted Sprague-Dawley rat at 120 mg/kg,sc measured at 30 mins by D'Amour-Smith tail-flick test in presence of opioid antagonist nalorphine; assay type: functional, organism-based; parameters: dose 120 mg/kg
Rattus norvegicus [27] = assay: Hypoglycemic activity in Sprague-Dawley rat assessed as reduction of blood glucose level at 88 mg/kg, po by glucagon-impaired glucose disposal test in presence of opioid antagonist nalorphine; assay type: functional, organism-based; parameters: dose 88 mg/kg
Rattus norvegicus [28] = species: Rattus norvegicus; assay: Narcotic analgesic activity in Sprague-Dawley rat at 15 mins by D'Amour-Smith tail-flick test in presence of microsomal enzyme inhibitor SKF 525-A; assay type: functional, organism-based
Rattus norvegicus [29] = assay: Hypoglycemic activity in sc dosed fasted Sprague-Dawley rat assessed as reduction of blood glucose level measured for 0.5 to 2 hrs; assay type: functional, organism-based
Rattus norvegicus [30] = assay: Hypoglycemic activity in glucose loaded Sprague-Dawley rat assessed as reduction of blood glucose level at 89 mg/kg, po relative to control; assay type: functional; parameters: scale not given: the % may be the effect or the level left
Rattus norvegicus [31] = assay: Hypoglycemic activity in glucose loaded Sprague-Dawley rat assessed as reduction of blood glucose level at 100 mg/kg, po relative to control; assay type: functional; parameters: scale not given: the % may be the effect or the level left
Mus musculus [32] = assay: Analgesic activity in Swiss-Webster mouse assessed as reduction of acetylcholine-induced writhing at 75 mg/kg, sc relative to control; assay type: functional; parameters: scale not given: the % may be the effect or the level left; conditions: route subcutaneous
Rattus norvegicus [33] = assay: Toxicity in Sprague-Dawley rat assessed as hyperexcitability at 240 mg/kg, po; assay type: organism-based; parameters: dose 240 mg/kg, route oral; conditions: in vivo
Rattus norvegicus [34] = assay: Hypoglycemic activity in glucose loaded Sprague-Dawley rat assessed as reduction of blood glucose level at 100 mg/kg, po in presence of microsomal enzyme inhibitor SKF 525-A; assay type: functional, organism-based; parameters: dose 100 mg/kg
[35] = Mus musculus, Swiss-Webster, sc, read-out: ED50

In the case of COC(=O)[C@H]1C[C@H]2CC[C@H]([C@H]1c1cccs1)N2C.Cl, the ED50 (Rattus norvegicus [1]) was 59 mg/kg, the ED50 (Rattus norvegicus [2]) was 60 mg/kg and the Activity (Rattus norvegicus [3]) was “Toxic”. For the same compound, the ED50 (Rattus norvegicus [4]) was 6.9 mg/kg, the Activity (Rattus norvegicus [5]) was “Toxic” and the Activity (Rattus norvegicus [6]) was “Toxic”. The Activity (Rattus norvegicus [7]) was “Toxic”, the “Ratio ED50” value (Rattus norvegicus [8]) was >10 and the Activity (Rattus norvegicus [9]; 88 mg/kg) was 75%.
With COC(=O)[C@H]1C[C@H]2CC[C@H]([C@H]1c1cccc(O)c1)N2C.Cl the Activity (Rattus norvegicus [10]) was <20%, the ED50 (Mus musculus [11]; [35]) was 24 mg/kg and the Activity (Rattus norvegicus [12]) was “inactive”. For the same compound, the Activity (Rattus norvegicus [9]) was <20%.
CC(C)OC(=O)[C@H]1C[C@H]2CC[C@H]([C@H]1c1ccccc1)N2C.Cl was tested, and the Activity (Rattus norvegicus [13]) was 28%.
COC(=O)[C@H]1[C@@H](OC(=O)c2ccccc2)C[C@@H]2CC[C@H]1N2C was tested, and the Activity (Rattus norvegicus [9]) was “Active”.
CCCOC(=O)[C@H]1C[C@H]2CC[C@H]([C@H]1c1cccs1)N2C was tested, and the Activity (Rattus norvegicus [14]) was <20%, the Activity (Rattus norvegicus [15]) was <20% and the Activity (Mus musculus [16]) was 27%.
COC(=O)[C@H]1C[C@H]2CC[C@H]([C@H]1c1ccccc1)N2C (stereo in doubt; (+)-5) was tested, and the Activity (Rattus norvegicus [15]) was 59%, the ED50 (Mus musculus [11]) was 11 mg/kg and the Activity (Rattus norvegicus [17]) was “Toxic”.
With COC(=O)[C@H]1C[C@H]2CC[C@H]([C@H]1c1ccc(O)cc1)N2C the Activity (Rattus norvegicus [14]) was <20%.
In the case of COC(=O)[C@H]1C[C@H]2CC[C@H]([C@H]1c1ccccc1)N2C.Cl (racemic), the Activity (Rattus norvegicus [10]) was <20%, the ED50 (Mus musculus [11]; [35]) was 12 mg/kg and the Activity (Rattus norvegicus [18]) was “Toxic”. The Activity (Mus musculus [19]) was “Toxic” and the Activity (Rattus norvegicus [9]) was 24%.
COC(=O)[C@H]1C[C@H]2CC[C@H]([C@H]1c1cccs1)N2CCCO.Cc1ccc(S(=O)(=O)O)cc1 was tested, and the Activity (Rattus norvegicus [20]) was 27%, the Activity (Rattus norvegicus [21]) was 92% and the Activity (Mus musculus [22]) was 33%. The Activity (Rattus norvegicus [23]) was “Toxic”, the Activity (Rattus norvegicus [17]) was “Toxic” and the Activity (Rattus norvegicus [24]) was “Toxic”.
With COC(=O)[C@H]1C[C@H]2CC[C@H]([C@H]1c1cccs1)N2C (racemic) the Activity (Rattus norvegicus [25]) was “inactive”, the Activity (Rattus norvegicus [26]) was “inactive” and the Activity (Rattus norvegicus [27]) was “Active”. For the same compound, the Activity (Rattus norvegicus [28]) was “inactive” and the Activity (Rattus norvegicus [29]) was “inactive”.
In the case of COC(=O)[C@H]1C[C@H]2CC[C@H]([C@H]1c1cccs1)N2CC(N)=O.Cl, the Activity (Rattus norvegicus [30]) was 66%, the Activity (Rattus norvegicus [21]) was 72% and the Activity (Mus musculus [16]) was 13%. For the same compound, the Activity (Rattus norvegicus [24]) was “Toxic”.
Compound CCOC(=O)N(CN1[C@@H]2CC[C@@H]1[C@@H](c1cccs1)[C@@H](C(=O)OC)C2)NC(=O)OC has an Activity (Rattus norvegicus [31]) of 80%.
For CC[N+]12Cc3ccsc3[C@H]3[C@@H](C(=O)OC)C[C@H]1CC[C@H]32, the Activity (Rattus norvegicus [14]) was <20% and the ED50 (Mus musculus [11]; [35]) was 3.8 mg/kg.
CCOCCN1[C@@H]2CC[C@@H]1[C@@H](c1cccs1)[C@@H](C(=O)OC)C2 showed an Activity (Rattus norvegicus [31]) of 73%, an Activity (Rattus norvegicus [21]) of 100% and an Activity (Mus musculus [32]) of 67%. For the same compound, the Activity (Rattus norvegicus [17]) was “Toxic”, the Activity (Rattus norvegicus [24]) was “Toxic” and the Activity (Rattus norvegicus [33]) was “Toxic”. The Activity (Rattus norvegicus [34]) was “inactive”.
